Patent US7674807B2, “Heterocycle-substituted n-phenyl-phthalamide derivatives, related compounds and their use as insecticides” (Bayer CropScience AG, priority 2004, dated 2010)

Legend:
[1] = test system: larva of Cnaphalocrocis medinalis Guenee; assay: Test against larva of Cnaphalocrocis medinalis Guenee (sprayed paddy rice foliage); assay type: in vivo; conditions: 20 ppm concentration of the active component; second instar larvae; counted after 7 days; 25° C.
Experimental: Paddy rice (variety: Tamanishiki) planted in a pot was treated by spraying 50 ml per pot of the diluted aqueous solution of the prescribed concentration of the active compound prepared in the same manner as in the above-mentioned Biological Test Example 1. After the treated rice plant was dried in the air, their foliage part was cut in 4-5 cm length, which were put in a dish with 9 cm diameter with a sheet of filter paper and 2 ml of water. Five larvae of Cnaphalocrocis medinalis Guenee at the second instar were put in the dish that was placed in a room at the constant temperature of 25° C. After 2 and 4 days, each rest (each ⅓ amount) of foliage parts of rice plant were cut in the same manner and added to the dish. After 7 days the number of dead larvae was counted and the rate of death was calculated. In this test the results of 2 dishes at 1 section were averaged.

[2] = test system: larva of Spodoptera litura; assay: Test against larva of Spodoptera litura (leaf dip, sweet potato leaves); assay type: in vivo; conditions: 20 ppm concentration of the active component; third instar larvae; counted after 7 days; 25° C.
Experimental: Preparation of Test Solution:
In order to make an appropriate formulation of an active compound, 1 part by weight of the active compound was mixed with the above-mentioned amount of solvent containing the above-mentioned amount of emulsifier and the mixture was diluted with water to a prescribed concentration.
Leaves of sweet potato were soaked in the test solution diluted to a prescribed concentration with water, dried in the air and put in a dish of 9 cm diameter.
10 larvae of Spodoptera litura at the third instar were placed on the leaves and kept in a room at the constant temperature of 25° C. After 2 and 4 days further leaves of sweet potato were added and after 7 days the number of dead larvae was counted and the rate of death was calculated.
In this test the results of 2 dishes at 1 section were averaged.

CSCC(C)NC(=O)c1c(I)cccc1C(=O)Nc1ccc(-c2cc(OC(F)F)n(C(F)F)n2)cc1C (stereo not drawn) [compound 518]
controlling effect, rate of death [1]: 100%
controlling effect, rate of death [2]: 100%

Cc1cc(-c2cc(OC(F)F)n(C(F)F)n2)ccc1NC(=O)c1cccc(I)c1C(=O)NC(C)CS(C)(=O)=O (stereo not drawn) [compound 520]
controlling effect, rate of death [1]: 100%
controlling effect, rate of death [2]: 100%

Cc1cc(Cn2nc(C(F)(F)F)cc2C(F)(F)F)ccc1NC(=O)c1cccc(I)c1C(=O)N[C@@H](C)CSC(C)C [compound 539]
controlling effect, rate of death [1]: 100%
controlling effect, rate of death [2]: 100%

CSC[C@H](C)NC(=O)c1c(C(=O)Nc2ccc(Cn3nc(C(F)(F)F)cc3C(F)(F)F)cc2C)cccc1[N+](=O)[O-] [compound 543]
controlling effect, rate of death [1]: 100%
controlling effect, rate of death [2]: 100%

Cc1cc(Cn2nc(C(F)(F)F)cc2C(F)(F)F)ccc1NC(=O)c1cccc([N+](=O)[O-])c1C(=O)N[C@@H](C)C[S+](C)[O-] (stereo partly drawn) [compound 544]
controlling effect, rate of death [1]: 100%
controlling effect, rate of death [2]: 100%

Cc1cc(Cn2nc(C(F)(F)F)cc2C(F)(F)F)ccc1NC(=O)c1cccc([N+](=O)[O-])c1C(=O)N[C@@H](C)CS(C)(=O)=O [compound 545]
controlling effect, rate of death [1]: 100%
controlling effect, rate of death [2]: 100%

CSC[C@H](C)NC(=O)c1c(C(=O)Nc2ccc(Cn3nc(C(F)(F)F)nc3C(F)(F)F)cc2C)cccc1[N+](=O)[O-] [compound 546]
controlling effect, rate of death [1]: 100%
controlling effect, rate of death [2]: 100%

Cc1cc(Cn2nc(C(F)(F)F)nc2C(F)(F)F)ccc1NC(=O)c1cccc([N+](=O)[O-])c1C(=O)N[C@@H](C)C[S+](C)[O-] (stereo partly drawn) [compound 547]
controlling effect, rate of death [1]: 100%
controlling effect, rate of death [2]: 100%

Cc1cc(Cn2nc(C(F)(F)F)nc2C(F)(F)F)ccc1NC(=O)c1cccc([N+](=O)[O-])c1C(=O)N[C@@H](C)CS(C)(=O)=O [compound 548]
controlling effect, rate of death [1]: 100%
controlling effect, rate of death [2]: 100%

CSC[C@H](C)NC(=O)c1c(F)cccc1C(=O)Nc1ccc(Cn2nc(C(F)(F)F)cc2C(F)(F)F)cc1C [compound 549, N^1-{4-[3,5-bis(trifluoromethyl)-1H-pyrazol-1-ylmethyl]-2-methylphenyl}-3-fluoro-N^2-[1-(S)-1-methyl-2-methylsulfanyl-ethyl]-phthalamide]
controlling effect, rate of death [1]: 100%
controlling effect, rate of death [2]: 100%

CSC[C@H](C)NC(=O)c1c(C(=O)Nc2ccc(Cn3nc(C(F)(F)F)cc3C(F)(F)F)cc2C)cccc1S(C)(=O)=O [compound 552]
controlling effect, rate of death [1]: 100%
controlling effect, rate of death [2]: 100%

CSC[C@H](C)NC(=O)c1c(I)cccc1C(=O)Nc1ccc(Cn2nc(C(F)(F)F)c(I)c2C(F)(F)F)cc1C [compound 554]
controlling effect, rate of death [1]: 100%
controlling effect, rate of death [2]: 100%

CSC[C@H](C)NC(=O)c1c(Cl)cccc1C(=O)Nc1ccc(C(C)n2nc(C(F)(F)F)cc2C(F)(F)F)cc1C (stereo partly drawn) [compound 559]
controlling effect, rate of death [1]: 100%
controlling effect, rate of death [2]: 100%

Cc1cc(C(C)n2nc(C(F)(F)F)cc2C(F)(F)F)ccc1NC(=O)c1cccc(Cl)c1C(=O)N[C@@H](C)CS(C)(=O)=O (stereo partly drawn) [compound 561]
controlling effect, rate of death [1]: 100%
controlling effect, rate of death [2]: 100%

CSC[C@H](C)NC(=O)c1c(I)cccc1C(=O)Nc1ccc(C(C)n2nc(C(F)(F)F)cc2C(F)(F)F)cc1C (stereo partly drawn) [compound 562]
controlling effect, rate of death [1]: 100%
controlling effect, rate of death [2]: 100%

Cc1cc(C(C)n2nc(C(F)(F)F)cc2C(F)(F)F)ccc1NC(=O)c1cccc(I)c1C(=O)N[C@@H](C)C[S+](C)[O-] (stereo partly drawn) [compound 563]
controlling effect, rate of death [1]: 100%
controlling effect, rate of death [2]: 100%

Cc1cc(C(C)n2nc(C(F)(F)F)cc2C(F)(F)F)ccc1NC(=O)c1cccc(I)c1C(=O)N[C@@H](C)CS(C)(=O)=O (stereo partly drawn) [compound 564]
controlling effect, rate of death [1]: 100%
controlling effect, rate of death [2]: 100%

CSCC(C)(C)NC(=O)c1c(I)cccc1C(=O)Nc1ccc(C(C)n2nc(C(F)(F)F)cc2C(F)(F)F)cc1C (stereo not drawn) [compound 565]
controlling effect, rate of death [1]: 100%
controlling effect, rate of death [2]: 100%

Cc1cc(C(C)n2nc(C(F)(F)F)cc2C(F)(F)F)ccc1NC(=O)c1cccc(I)c1C(=O)NC(C)(C)C[S+](C)[O-] (stereo not drawn) [compound 566]
controlling effect, rate of death [1]: 100%
controlling effect, rate of death [2]: 100%

Cc1cc(C(C)n2nc(C(F)(F)F)cc2C(F)(F)F)ccc1NC(=O)c1cccc(I)c1C(=O)NC(C)(C)CS(C)(=O)=O (stereo not drawn) [compound 567]
controlling effect, rate of death [1]: 100%
controlling effect, rate of death [2]: 100%

CSC[C@H](C)NC(=O)c1c(Cl)cccc1C(=O)Nc1ccc(C(C)n2nc(C(F)(F)F)nc2C(F)(F)F)cc1C (stereo partly drawn) [compound 568]
controlling effect, rate of death [1]: 100%
controlling effect, rate of death [2]: 100%

CSC[C@H](C)NC(=O)c1c(I)cccc1C(=O)Nc1ccc(C(C)n2nc(C(F)(F)F)nc2C(F)(F)F)cc1C (stereo partly drawn) [compound 571]
controlling effect, rate of death [1]: 100%
controlling effect, rate of death [2]: 100%

Cc1cc(C(C)n2nc(C(F)(F)F)nc2C(F)(F)F)ccc1NC(=O)c1cccc(I)c1C(=O)N[C@@H](C)CS(C)(=O)=O (stereo partly drawn) [compound 573]
controlling effect, rate of death [1]: 100%
controlling effect, rate of death [2]: 100%

CSC[C@H](C)NC(=O)c1c(Cl)cccc1C(=O)Nc1ccc(C(C)n2nc(C(F)(F)F)nc2C(F)(F)C(F)(F)F)cc1C (stereo partly drawn) [compound 574]
controlling effect, rate of death [1]: 100%
controlling effect, rate of death [2]: 100%

CSC[C@H](C)NC(=O)c1c(Cl)cccc1C(=O)Nc1ccc(C(C)n2nc(C(F)(F)C(F)(F)F)nc2C(F)(F)F)cc1C (stereo partly drawn) [compound 578]
controlling effect, rate of death [1]: 100%
controlling effect, rate of death [2]: 100%

Cc1cc(C(C)n2nc(C(F)(F)C(F)(F)F)nc2C(F)(F)F)ccc1NC(=O)c1cccc(Cl)c1C(=O)N[C@@H](C)CS(C)(=O)=O (stereo partly drawn) [compound 580]
controlling effect, rate of death [1]: 100%
controlling effect, rate of death [2]: 100%

CSC[C@H](C)NC(=O)c1c(Cl)cccc1C(=O)Nc1ccc(Cn2nc(C(F)(F)C(F)(F)F)cc2C(F)(F)C(F)(F)F)cc1C [compound 626]
controlling effect, rate of death [1]: 100%
controlling effect, rate of death [2]: 100%

CSC[C@H](C)NC(=O)c1c(Cl)cccc1C(=O)Nc1ccc(Cn2cc(C(F)(F)C(F)(F)F)c(C(F)(F)F)n2)cc1C [compound 637]
controlling effect, rate of death [1]: 100%
controlling effect, rate of death [2]: 100%

Cc1cc(Cn2cc(C(F)(F)C(F)(F)F)c(C(F)(F)F)n2)ccc1NC(=O)c1cccc(Cl)c1C(=O)N[C@@H](C)C[S+](C)[O-] (stereo partly drawn) [compound 638]
controlling effect, rate of death [1]: 100%
controlling effect, rate of death [2]: 100%

Cc1cc(Cn2cc(C(F)(F)C(F)(F)F)c(C(F)(F)F)n2)ccc1NC(=O)c1cccc(Cl)c1C(=O)N[C@@H](C)CS(C)(=O)=O [compound 639]
controlling effect, rate of death [1]: 100%
controlling effect, rate of death [2]: 100%

CSC[C@H](C)NC(=O)c1c(I)cccc1C(=O)Nc1ccc(Cn2cc(C(F)(F)C(F)(F)F)c(C(F)(F)F)n2)cc1C [compound 640]
controlling effect, rate of death [1]: 100%
controlling effect, rate of death [2]: 100%

Cc1cc(Cn2cc(C(F)(F)C(F)(F)F)c(C(F)(F)F)n2)ccc1NC(=O)c1cccc(I)c1C(=O)N[C@@H](C)C[S+](C)[O-] (stereo partly drawn) [compound 641]
controlling effect, rate of death [1]: 100%
controlling effect, rate of death [2]: 100%

Cc1cc(Cn2cc(C(F)(F)C(F)(F)F)c(C(F)(F)F)n2)ccc1NC(=O)c1cccc(I)c1C(=O)N[C@@H](C)CS(C)(=O)=O [compound 642]
controlling effect, rate of death [1]: 100%
controlling effect, rate of death [2]: 100%

CSC[C@H](C)NC(=O)c1c(Cl)cccc1C(=O)Nc1ccc(Cn2cc(C(F)(F)C(F)(F)C(F)(F)F)c(C(F)(F)F)n2)cc1C [compound 643]
controlling effect, rate of death [1]: 100%
controlling effect, rate of death [2]: 100%

CSC[C@H](C)NC(=O)c1c(I)cccc1C(=O)Nc1ccc(Cn2cc(C(F)(F)C(F)(F)C(F)(F)F)c(C(F)(F)F)n2)cc1C [compound 644]
controlling effect, rate of death [1]: 100%
controlling effect, rate of death [2]: 100%

CSC[C@H](C)NC(=O)c1c(Cl)cccc1C(=O)Nc1ccc(Cn2cc(C(F)(F)C(F)(F)C(F)(F)C(F)(F)F)c(C(F)(F)F)n2)cc1C [compound 645]
controlling effect, rate of death [1]: 100%
controlling effect, rate of death [2]: 100%

Cc1cc(Cn2cc(C(F)(F)C(F)(F)C(F)(F)C(F)(F)F)c(C(F)(F)F)n2)ccc1NC(=O)c1cccc(Cl)c1C(=O)N[C@@H](C)C[S+](C)[O-] (stereo partly drawn) [compound 646]
controlling effect, rate of death [1]: 100%
controlling effect, rate of death [2]: 100%

Cc1cc(Cn2cc(C(F)(F)C(F)(F)C(F)(F)C(F)(F)F)c(C(F)(F)F)n2)ccc1NC(=O)c1cccc(Cl)c1C(=O)N[C@@H](C)CS(C)(=O)=O [compound 647]
controlling effect, rate of death [1]: 100%
controlling effect, rate of death [2]: 100%

CSC[C@H](C)NC(=O)c1c(I)cccc1C(=O)Nc1ccc(Cn2cc(C(F)(F)C(F)(F)C(F)(F)C(F)(F)F)c(C(F)(F)F)n2)cc1C [compound 648]
controlling effect, rate of death [1]: 100%
controlling effect, rate of death [2]: 100%
